This note sets out measurements from US4885314A, “Novel HMG-CoA reductase inhibitors” (Merck & Co., Inc., priority 1988, dated 1989).

The test has as its system HMG-CoA reductase. Description: in vitro HMG-CoA reductase inhibition (protocol of J. Med. Chem., 1985, 28, page 347). Type of test: biochemical. The conditions noted are these: percent of the activity exhibited by mevinolin in the same protocol. The method, then:
The intrinsic HMG-CoA reductase inhibition activity of the claimed compounds is measured in the in vitro protocol described is J. Med. Chem., 1985, 28, page 347.

Take `C=C1C=C2C=C[C@H](C)[C@H](CC[C@@H](O)C[C@@H](O)CC(=O)O)C2[C@@H](OC(=O)C(C)CC)C1` (stereo partly shown): the relative inhibitory activity was found to be 50%.
